Data as given in patent US8629177B2, “Nanoencapsulated delta-9-tetrahydrocannabinol” (Aphios Corporation, priority 2010, dated 2014).
Like-named read-outs stand apart in the source and are kept apart here.

Key:
Fischer rats = conditions: cited from earlier work
[1] = Stability of Δ9-THC in collection buffer compositions and at different pH; format: physicochemical
Method: (§1) Stability Studies: Shelf stability studies were conducted with Δ9-THC, Δ9-THC polymer nanospheres and formulations of the aforementioned. The following tests were performed: (i) physical appearance; and (ii) Δ9-THC content and integrity. Statistical analysis of the data sets were performed using SYSTAT®.
The composition of the buffer was determined from stability studies with Δ9-THC at different conditions. […] Stability experiments were also conducted with Δ9-THC at pH=4, 7 and 10. […] Experiments were also used to determine that a low concentration of PVA was adequate for […] and minimizing foaming in the collection buffer. The buffer was deareated to remove dissolved oxygen since Δ9-THC is very sensitive to oxygen. A 10% sucrose buffer was utilized based on prior experimental data for this and other projects to preserve particle integrity after lyophilization. Prior to lyophilization, these products were placed in a −80° C. freezer until they were frozen solid. Samples were then lyophilized for a 24 hour period. These samples were reconstituted in distilled, degasified water and were analyzed using HPLC and particle size analysis via dynamic light scattering. After lyophilization, particle sizes of THC-19 and THC-21 were reduced to 287 and 230 nm respectively, and the recovery efficiencies were 77% and 95% respectively.

[2] = 6-week stability of nanoencapsulated and naked Δ9-THC at 4, 25 and 40° C.; format: physicochemical; conditions: 4° C., 25° C. and 40° C.
Method: as §1
Stability studies were conducted on polymer nanoencapsulated Δ9-THC (THC-12-1) and naked Δ9-THC samples over a 6-week period at 4° C., 25° C. and 40° C.

In the case of `CCCCCc1cc(O)c2c(c1)OC(C)(C)[C@@H]1CCC(C)=C[C@@H]21` [Δ9-THC, delta-9-tetrahydrocannabinol], the LD50 (Fischer rats; females, orally, sesame oil vehicle) is listed as 730 mg/kg, the LD50 (Fischer rats; males, females, i.v.) is listed as 40 mg/kg and the “LD50 corrected for particulate losses and pulmonary adsorption” value (Fischer rats; males, females, inhalation, corrected) is listed as 42 mg/kg. For the same compound, the LD50 (Fischer rats; males, females, inhalation) was 105.7 mg/kg, the LD50 (Fischer rats; males, orally, sesame oil vehicle) was 1,270 mg/kg and the LD50 (Fischer rats; males, orally, sesame oil, 1% polysorbate 80, saline emulsion) was 800 mg/kg. For the same compound, the “stability at pH=4, 7 and 10” value ([1]; pH 4, 7, 10 compared) was “most stable at pH=4”, the “stability in 10% sucrose/0.1% PVA solution with 40% ethanol” value ([1]; six day study, 40% ethanol) was “stable if 40% ethanol is introduced” and the “stability in 10% sucrose/0.1% PVA solution” value ([1]; six day study, PVA-sucrose solution without sufficient ethanol (0%, 20%, 30%)) was “degrades in the PVA-sucrose solution”. For the same compound, the degradation by temperature ([2]; 6-week period) was “degrades almost equally at each temperature” and the “degradation after 6 weeks” value ([2]; after 6 weeks) was “most of the Δ9-THC is degraded”.
